Literature values, collected in patent US20160002278A1, “Pharmaceutical Compositions for Rectal Administration” (CIPLA LIMITED, priority 2013, published 2016).

What was measured:
[1] = oral administration
[2] = animal study, distributed to other vital organs such as lungs

Structure (SMILES): CCc1c(Cl)c(O)c(Cl)c(O)c1C(=O)O[C@H]1[C@H](O)[C@H](OC)[C@H](OC/C2=C\C=C\C[C@H](O)/C(C)=C/[C@H](CC)[C@@H](O[C@@H]3OC(C)(C)[C@@H](OC(=O)C(C)C)[C@H](O)[C@@H]3O)/C(C)=C/C(C)=C/C[C@@H]([C@@H](C)O)OC2=O)O[C@@H]1C [Fidaxomicin]
- bioavailability (after oral administration): 1%
- absorption from the gastrointestinal tract (following oral (PO) administration): minimally absorbed
- adverse effects [1]: hives, difficulty in breathing, swelling of face, lips, tongue or throat
- organ findings after oral administration [2]: dark red discoloration of the lungs and lymph nodes
